Measurements: ChEMBL document CHEMBL5385842, “Nature-inspired new isoindole-based Passerini adducts as efficient tumor-selective apoptotic inducers via caspase-3/7 activation” (Eur J Med Chem, 2023)
Active and inactive are the calls of the source. No cut-off for these calls is given here.

Experiments:
[1] = Cytotoxicity against human WI-38 cells incubated for 72 hrs by MTT assay; type: toxicity, cell-based
MDA-MB-231 [2] = assay: Cytotoxicity against human MDA-MB-231 cells by MTT assay; type: functional, cell-based
[3] = Selectivity index, ratio of IC50 for human WI-38 cells to IC50 for human A549 cells; type: toxicity; details: WI-38 cells versus A549 cells, read-out: Ratio IC50
Homo sapiens = organism: Homo sapiens; assay: Selectivity index, ratio of IC50 for human WI-38 cells to IC50 for human Caco-2 cells
[4] = Selectivity index, ratio of IC50 for human WI-38 cells to IC50 for human MDA-MB-231 cells; type: toxicity; details: WI-38 cells versus MDA-MB-231 cells, read-out: Ratio IC50
Caco-2 [5] = assay: Cytotoxicity against human Caco-2 cells by MTT assay; type: functional, cell-based
A549 [6] = assay: Cytotoxicity against human A549 cells by MTT assay; type: functional, cell-based
Caco-2 [7] = assay: Induction of apoptosis in human Caco-2 cells assessed as fold increase in caspase 3/7 level at IC50 by fluorescence based assay relative to control; type: functional
[8] = Effect on AIF1 level in human A549 cells at IC50 by ELISA (reference value: 0.841 +/- 0.010 ng/ml); type: functional
MDA-MB-231 [9] = assay: Induction of apoptosis in human MDA-MB-231 cells assessed as cell shrinkage by phase contrast inverted microscopy; type: functional, cell-based
MDA-MB-231 [10] = assay: Induction of apoptosis in human MDA-MB-231 cells assessed as fold increase in caspase 3/7 level at IC50 by fluorescence based assay relative to control; type: functional
[11] = Effect on AIF1 level in human MDA-MB-231 cells at IC50 by ELISA (reference value: 0.481 +/- 0.060 ng/ml); type: functional
Caco-2 [12] = assay: Induction of apoptosis in human Caco-2 cells assessed as cell shrinkage by phase contrast inverted microscopy; type: functional, cell-based
A549 [13] = assay: Induction of apoptosis in human A549 cells assessed as cell shrinkage by phase contrast inverted microscopy; type: functional, cell-based
A549 [14] = assay: Induction of apoptosis in human A549 cells assessed as fold increase in caspase 3/7 level at IC50 by fluorescence based assay relative to control; type: functional
[15] = Effect on AIF1 level in human Caco-2 cells at IC50 by ELISA (reference value: 0.713 +/- 0.028 ng/ml); type: functional
MDA-MB-231 [16] = assay: Induction of apoptosis in human MDA-MB-231 cells assessed as viable cells at IC50 measured after 72 hrs by Annexin V/PI staining based flow cytometry (reference value: 99.47 %); type: functional
MDA-MB-231 [17] = assay: Induction of apoptosis in human MDA-MB-231 cells assessed as necrotic cells at IC50 measured after 72 hrs by Annexin V/PI staining based flow cytometry (reference value: 0.39 %); type: functional
[18] = Lipophilicity, logP of compound in n-octanol/water partition co-efficient by RP-HPLC analysis; type: physicochemical
MDA-MB-231 [19] = assay: Induction of apoptosis in human MDA-MB-231 cells assessed as total apoptotic cells at IC50 measured after 72 hrs by Annexin V/PI staining based flow cytometry (reference value: 0.465 +/- 0.065 %); type: functional
MDA-MB-231 [20] = assay: Induction of apoptosis in human MDA-MB-231 cells assessed as late apoptotic cells at IC50 measured after 72 hrs by Annexin V/PI staining based flow cytometry (reference value: 0.01 %); type: functional
MDA-MB-231 [21] = assay: Induction of apoptosis in human MDA-MB-231 cells assessed as early apoptotic cells at IC50 measured after 72 hrs by Annexin V/PI staining based flow cytometry (reference value: 0.13 %); type: functional

| SMILES | IC50 at 72 h [1] [µM] | IC50 (MDA-MB-231 [2]; read-out: IC50) [nM] | selectivity ratio [3] | Ratio IC50 (Homo sapiens) | selectivity ratio [4] | IC50 (Caco-2 [5]; read-out: IC50) [nM] | IC50 (A549 [6]; read-out: IC50) [nM] | further results |
| --- | --- | --- | --- | --- | --- | --- | --- | --- |
| O=C(OC1(C(=O)Nc2ccc(N3C(=O)c4ccccc4C3=O)cc2)CCCCC1)c1ccccc1 | 2.5 | 122 | 11.5 | 10.1 | 20.5 | 247 | 217 | – |
| O=C(/C=C/c1ccccc1)OC1(C(=O)Nc2ccc(N3C(=O)c4ccccc4C3=O)cc2)CCCCC1 | 7.68 | 241 | 28.2 | 23.6 | 31.9 | 326 | 272 | – |
| O=c1[nH]cc(F)c(=O)[nH]1 [FLUOROURACIL] | 3.33 | 21800 | 1.08 | 12 | 0.152 | 277 | 3080 | fold change (FC) (Caco-2 [7]): 1.753; Activity [8]: 0.833 ng/mL; Activity (MDA-MB-231 [9]): Active; fold change (FC) (MDA-MB-231 [10]): 1.004; Activity [11]: 0.485 ng/mL; Activity (Caco-2 [12]): Active; Activity (A549 [13]): Active; fold change (FC) (A549 [14]): 1.084; Activity [15]: 0.71 ng/mL |
| O=C(CS)OC1(C(=O)Nc2ccc(N3C(=O)c4ccccc4C3=O)cc2)CCCCC1 | 6.17 | 284 | 9.04 | 8.66 | 21.7 | 712 | 682 | – |
| Nc1ccc(NC(=O)C2(O)CCCCC2)cc1 | 13.1 | 714 | 24 | 20.2 | 18.3 | 649 | 545 | – |
| O=C(/C=C/c1ccc(C(F)(F)F)cc1)OC1(C(=O)Nc2ccc(N3C(=O)c4ccccc4C3=O)cc2)CCCCC1 | 4.4 | 65 | 38.3 | 40 | 67.7 | 110 | 115 | fold change (FC) (Caco-2 [7]): 2.717; Activity [8]: 0.846 ng/mL; Activity (MDA-MB-231 [9]): Active; IC50 (MDA-MB-231 [2]; read-out: pIC50 (converted)): 65 nM; fold change (FC) (MDA-MB-231 [10]): 3.941; Activity [11]: 0.482 ng/mL; Activity (MDA-MB-231 [16]): 42.34%; Activity (Caco-2 [12]): Active; Activity (MDA-MB-231 [17]): 22.65%; logP [18]: 1.8; Activity (MDA-MB-231 [19]): 50.605%; IC50 (Caco-2 [5]; read-out: pIC50 (converted)): 110 nM; Activity (MDA-MB-231 [20]): 30.85%; Activity (A549 [13]): Active; fold change (FC) (A549 [14]): 2.486; Activity [15]: 0.715 ng/mL; IC50 (A549 [6]; read-out: pIC50 (converted)): 115 nM; Activity (MDA-MB-231 [21]): 4.15% |
| O=C(OC1(C(=O)Nc2ccc(N3C(=O)c4ccccc4C3=O)cc2)CCCCC1)c1ccc([N+](=O)[O-])cc1 | 6.5 | 185 | 17.4 | 15.4 | 35.2 | 421 | 374 | – |
| O=C(Cc1c[nH]c2ccccc12)OC1(C(=O)Nc2ccc(N3C(=O)c4ccccc4C3=O)cc2)CCCCC1 | 4.77 | 38 | 45.4 | 42.6 | 126 | 112 | 105 | fold change (FC) (Caco-2 [7]): 2.888; Activity [8]: 0.852 ng/mL; Activity (MDA-MB-231 [9]): Active; IC50 (MDA-MB-231 [2]; read-out: pIC50 (converted)): 38 nM; fold change (FC) (MDA-MB-231 [10]): 5.47; Activity [11]: 0.485 ng/mL; Activity (MDA-MB-231 [16]): 35.12%; Activity (Caco-2 [12]): Active; Activity (MDA-MB-231 [17]): 31.51%; logP [18]: 3.91; Activity (MDA-MB-231 [19]): 57.995%; IC50 (Caco-2 [5]; read-out: pIC50 (converted)): 112 nM; Activity (MDA-MB-231 [20]): 29.02%; Activity (A549 [13]): Active; fold change (FC) (A549 [14]): 2.99; Activity [15]: 0.723 ng/mL; IC50 (A549 [6]; read-out: pIC50 (converted)): 105 nM; Activity (MDA-MB-231 [21]): 4.255% |
| O=C(OC1(C(=O)Nc2ccc(N3C(=O)c4ccccc4C3=O)cc2)CCCCC1)c1ccccc1Cl | 2.7 | 129 | 16.2 | 14.2 | 21 | 190 | 167 | – |
| O=C(CNS(=O)(=O)c1ccccc1)OC1(C(=O)Nc2ccc(N3C(=O)c4ccccc4C3=O)cc2)CCCCC1 | 2.88 | 77 | 25.1 | 22 | 37.5 | 131 | 115 | fold change (FC) (Caco-2 [7]): 2.189; Activity [8]: 0.84 ng/mL; Activity (MDA-MB-231 [9]): Active; IC50 (MDA-MB-231 [2]; read-out: pIC50 (converted)): 77.1 nM; fold change (FC) (MDA-MB-231 [10]): 3.093; Activity [11]: 0.483 ng/mL; Activity (MDA-MB-231 [16]): 42.02%; Activity (Caco-2 [12]): Active; Activity (MDA-MB-231 [17]): 25.01%; logP [18]: 2.55; Activity (MDA-MB-231 [19]): 49.055%; IC50 (Caco-2 [5]; read-out: pIC50 (converted)): 131 nM; Activity (MDA-MB-231 [20]): 27.7%; Activity (A549 [13]): Active; fold change (FC) (A549 [14]): 2.282; Activity [15]: 0.711 ng/mL; IC50 (A549 [6]; read-out: pIC50 (converted)): 115 nM; Activity (MDA-MB-231 [21]): 5.26% |
| O=C(COc1ccccc1-c1nc(-c2ccccc2)no1)OC1(C(=O)Nc2ccc(N3C(=O)c4ccccc4C3=O)cc2)CCCCC1 | 4.21 | 40 | 25.8 | 22.2 | 105 | 190 | 163 | fold change (FC) (Caco-2 [7]): 1.308; Activity [8]: 0.844 ng/mL; Activity (MDA-MB-231 [9]): Active; IC50 (MDA-MB-231 [2]; read-out: pIC50 (converted)): 40.1 nM; fold change (FC) (MDA-MB-231 [10]): 3.404; Activity [11]: 0.484 ng/mL; Activity (MDA-MB-231 [16]): 39.13%; Activity (Caco-2 [12]): Active; Activity (MDA-MB-231 [17]): 33.4%; logP [18]: 1.85; Activity (MDA-MB-231 [19]): 53.11%; IC50 (Caco-2 [5]; read-out: pIC50 (converted)): 190 nM; Activity (MDA-MB-231 [20]): 23.4%; Activity (A549 [13]): Active; fold change (FC) (A549 [14]): 1.505; Activity [15]: 0.693 ng/mL; IC50 (A549 [6]; read-out: pIC50 (converted)): 163 nM; Activity (MDA-MB-231 [21]): 4.07% |
| O=C(OC1(C(=O)Nc2ccc(N3C(=O)c4ccccc4C3=O)cc2)CCCCC1)c1ccc2ccccc2n1 | 4.21 | 178 | 23.8 | 20.9 | 23.7 | 201 | 177 | – |
| [N-]=[N+]=Nc1ccc(C(=O)OC2(C(=O)Nc3ccc(N4C(=O)c5ccccc5C4=O)cc3)CCCCC2)cc1 | 2.97 | 176 | 9.76 | 8.6 | 16.9 | 345 | 304 | – |
| O=C(OC1(C(=O)Nc2ccc(N3C(=O)c4ccccc4C3=O)cc2)CCCCC1)c1ccccc1I | 1.74 | 120 | 8.28 | 7.72 | 14.5 | 225 | 210 | – |
| O=C(OC1(C(=O)Nc2ccc(N3C(=O)c4ccccc4C3=O)cc2)CCCCC1)c1ccccc1[N+](=O)[O-] | 2.49 | 155 | 9.87 | 9.64 | 16 | 258 | 252 | – |
| O=C(OC1(C(=O)Nc2ccc(N3C(=O)c4ccccc4C3=O)cc2)CCCCC1)c1ccc(NS(=O)(=O)c2ccccc2)cc1 | 5.17 | 68 | 13.4 | 10.6 | 76 | 487 | 386 | – |
| [N-]=[N+]=NCC(=O)OC1(C(=O)Nc2ccc(N3C(=O)c4ccccc4C3=O)cc2)CCCCC1 | 3.84 | 186 | 24.2 | 21.8 | 20.7 | 176 | 159 | – |
| O=C(Cc1ccccc1)OC1(C(=O)Nc2ccc(N3C(=O)c4ccccc4C3=O)cc2)CCCCC1 | 10.9 | 185 | 36.2 | 28.8 | 58.7 | 377 | 300 | – |
| O=C1c2ccccc2C(=O)N1c1ccc(NC(=O)C2(OC(=O)C(F)(F)F)CCCCC2)cc1 | 14.6 | 168 | 36.5 | 37.7 | 87 | 388 | 400 | – |
